ChEMBL document CHEMBL3044836, “Synthesis, antimicrobial and cytotoxic activities of novel 4-trifluoromethyl-(1,2,3)-thiadiazolo-5-carboxylic acid hydrazide Schiffs bases” (Med Chem Res, 2013)
Converted amounts (≈) assume the structure as drawn.

Assays:
MDA-MB-231 [1] = experiment: Cytotoxicity against Homo sapiens (human) MDA-MB-231 cells assessed as cell viability at 1 uM after 48 hr by MTT assay relative to control; type: functional; settings: MDA-MB-231, 48 h, read-out: Activity
MCF7 [2] = experiment: Cytotoxicity against Homo sapiens (human) MCF7 cells assessed as cell viability at 10 uM after 48 hr by MTT assay relative to control; type: functional; settings: MCF7, 48 h, read-out: Activity
MDA-MB-231 [3] = experiment: Cytotoxicity against Homo sapiens (human) MDA-MB-231 cells assessed as cell viability at 10 uM after 48 hr by MTT assay relative to control; type: functional; settings: MDA-MB-231, 48 h, read-out: Activity
Aspergillus niger [4] = experiment: Antifungal activity against Aspergillus niger MTCC 1344 assessed as growth inhibition at 150 ug/ml after 48 hr by agar cup diffusion method; type: functional; settings: MTCC 1344, 48 h, read-out: DIZ
Aspergillus niger [5] = experiment: Antifungal activity against Aspergillus niger MTCC 1344 assessed as growth inhibition at 100 ug/ml after 48 hr by agar cup diffusion method; type: functional; settings: MTCC 1344, 48 h, read-out: DIZ
Saccharomyces cerevisiae [6] = experiment: Antifungal activity against Saccharomyces cerevisiae MTCC 36 assessed as growth inhibition at 150 ug/ml after 48 hr by agar cup diffusion method; type: functional; settings: MTCC 36, 48 h, read-out: DIZ
Saccharomyces cerevisiae [7] = experiment: Antifungal activity against Saccharomyces cerevisiae MTCC 36 assessed as growth inhibition at 100 ug/ml after 48 hr by agar cup diffusion method; type: functional; settings: MTCC 36, 48 h, read-out: DIZ
Diutina rugosa [8] = experiment: Antifungal activity against Candida rugosa NCIM 3462 assessed as growth inhibition at 150 ug/ml after 48 hr by agar cup diffusion method; type: functional; settings: NCIM 3462, 48 h, read-out: DIZ
Diutina rugosa [9] = experiment: Antifungal activity against Candida rugosa NCIM 3462 assessed as growth inhibition at 100 ug/ml after 48 hr by agar cup diffusion method; type: functional; settings: NCIM 3462, 48 h, read-out: DIZ
Candida albicans [10] = experiment: Antifungal activity against Candida albicans MTCC 227 assessed as growth inhibition at 150 ug/ml after 48 hr by agar cup diffusion method; type: functional; settings: MTCC 227, 48 h, read-out: DIZ
Candida albicans [11] = experiment: Antifungal activity against Candida albicans MTCC 227 assessed as growth inhibition at 100 ug/ml after 48 hr by agar cup diffusion method; type: functional; settings: MTCC 227, 48 h, read-out: DIZ
Klebsiella pneumoniae = experiment: Antibacterial activity against Klebsiella pneumoniae assessed as growth inhibition by broth dilution method; type: functional
Pseudomonas aeruginosa = experiment: Antibacterial activity against Pseudomonas aeruginosa MTCC 741 assessed as growth inhibition by broth dilution method; type: functional; settings: read-out: MIC
MCF7 [12] = experiment: Cytotoxicity against Homo sapiens (human) MCF7 cells assessed as cell viability after 48 hr by MTT assay; type: functional, cell-based; settings: MCF7, 48 h
MDA-MB-231 [13] = experiment: Cytotoxicity against Homo sapiens (human) MDA-MB-231 cells assessed as cell viability after 48 hr by MTT assay; type: functional, cell-based; settings: MDA-MB-231, 48 h
Staphylococcus aureus = experiment: Antibacterial activity against Staphylococcus aureus MTCC 96 assessed as growth inhibition by broth dilution method; type: functional
Bacillus subtilis = experiment: Antibacterial activity against Bacillus subtilis MTCC 441 assessed as growth inhibition by broth dilution method; type: functional; settings: read-out: MIC
[14] = test system: Staphylococcus epidermidis; experiment: Antibacterial activity against Staphylococcus epidermidis MTCC 435 assessed as growth inhibition by broth dilution method; type: functional; settings: read-out: MIC
Escherichia coli = experiment: Antibacterial activity against Escherichia coli MTCC 443 assessed as growth inhibition by broth dilution method; type: functional; settings: read-out: MIC
Aspergillus niger [15] = experiment: Antifungal activity against Aspergillus niger MTCC 1344 assessed as growth inhibition at 50 ug/ml after 48 hr by agar cup diffusion method; type: functional; settings: MTCC 1344, 48 h, read-out: DIZ
Saccharomyces cerevisiae [16] = experiment: Antifungal activity against Saccharomyces cerevisiae MTCC 36 assessed as growth inhibition at 50 ug/ml after 48 hr by agar cup diffusion method; type: functional; settings: MTCC 36, 48 h, read-out: DIZ
Diutina rugosa [17] = experiment: Antifungal activity against Candida rugosa NCIM 3462 assessed as growth inhibition at 50 ug/ml after 48 hr by agar cup diffusion method; type: functional; settings: NCIM 3462, 48 h, read-out: DIZ
Candida albicans [18] = experiment: Antifungal activity against Candida albicans MTCC 227 assessed as growth inhibition at 50 ug/ml after 48 hr by agar cup diffusion method; type: functional; settings: MTCC 227, 48 h, read-out: DIZ
MCF7 [19] = experiment: Cytotoxicity against Homo sapiens (human) MCF7 cells assessed as cell viability at 5 uM after 48 hr by MTT assay relative to control; type: functional; settings: MCF7, 48 h, read-out: Activity
MDA-MB-231 [20] = experiment: Cytotoxicity against Homo sapiens (human) MDA-MB-231 cells assessed as cell viability at 5 uM after 48 hr by MTT assay relative to control; type: functional; settings: MDA-MB-231, 48 h, read-out: Activity

Row | MIC (Klebsiella pneumoniae; read-out: MIC) [µg/mL] | MIC (Pseudomonas aeruginosa) [µg/mL] | MIC (Bacillus subtilis) [µg/mL] | MIC [14] [µg/mL] | MIC (Escherichia coli) [µg/mL] | MIC (Staphylococcus aureus) [µg/mL] | Compound | viability at 10 µM (MCF7 [2]) [%] | viability at 10 µM (MDA-MB-231 [3]) [%] | zone of inhibition at 150 µg/mL (Aspergillus niger [4]) [mm] | zone of inhibition at 100 µg/mL (Aspergillus niger [5]) [mm] | zone of inhibition at 150 µg/mL (Saccharomyces cerevisiae [6]) [mm] | zone of inhibition at 100 µg/mL (Saccharomyces cerevisiae [7]) [mm] | zone of inhibition at 150 µg/mL (Diutina rugosa [8]) [mm] | zone of inhibition at 100 µg/mL (Diutina rugosa [9]) [mm] | zone of inhibition at 150 µg/mL (Candida albicans [10]) [mm] | zone of inhibition at 100 µg/mL (Candida albicans [11]) [mm] | also measured
1 | 150 (≈ 476 µM) | 150 (≈ 476 µM) | 150 (≈ 476 µM) | 150 (≈ 476 µM) | 150 (≈ 476 µM) |  | C/C(=N\NC(=O)c1snnc1C(F)(F)F)c1ccccn1 | 63.6 | 25.4 | 0 | 0 | 0 | 0 | 0 | 0 | 0 | 0 | viability at 1 µM (MDA-MB-231 [1]): 41.7%; IC50 (MCF7 [12]): 6.01 µg/mL (≈ 19.1 µM); IC50 (MDA-MB-231 [13]): 2.74 µg/mL (≈ 8.69 µM); MIC (Staphylococcus aureus; read-out: MIC): 150 µg/mL (≈ 476 µM)
2 |  | 150 (≈ 500 µM) | 150 (≈ 500 µM) | 150 (≈ 500 µM) | 150 (≈ 500 µM) | > 150 | O=C(N/N=C/c1ccccc1)c1snnc1C(F)(F)F | 102 | 102 | 0 | 0 | 0 | 0 | 6 | 0 | 12 | 10 | MIC (Klebsiella pneumoniae): > 150 µg/mL
3 | 150 (≈ 471 µM) | 150 (≈ 471 µM) | 150 (≈ 471 µM) | 150 (≈ 471 µM) | 150 (≈ 471 µM) | > 150 | O=C(N/N=C/c1ccc(F)cc1)c1snnc1C(F)(F)F | 99.5 | 102 | 0 | 0 | 0 | 0 | 0 | 0 | 0 | 0 | 
4 |  |  |  |  |  |  | C[C@@H]1[C@H](O)[C@@H](C)/C=C/C=C/C=C/C=C/C=C/C=C/C=C/[C@H](O[C@@H]2O[C@H](C)[C@@H](O)[C@H](N)[C@@H]2O)C[C@@H]2O[C@](O)(C[C@@H](O)C[C@@H](O)[C@H](O)CC[C@@H](O)C[C@@H](O)CC(=O)O[C@H]1C)C[C@H](O)[C@H]2C(=O)O [AMPHOTERICIN B] |  |  |  |  |  |  |  |  |  |  | zone of inhibition at 50 µg/mL (Aspergillus niger [15]): 25 mm; zone of inhibition at 50 µg/mL (Saccharomyces cerevisiae [16]): 22 mm; zone of inhibition at 50 µg/mL (Diutina rugosa [17]): 21 mm; zone of inhibition at 50 µg/mL (Candida albicans [18]): 23.5 mm
5 |  |  |  |  |  |  | COc1cccc2c1C(=O)c1c(O)c3c(c(O)c1C2=O)C[C@@](O)(C(=O)CO)C[C@@H]3O[C@H]1C[C@H](N)[C@H](O)[C@H](C)O1 [DOXORUBICIN] |  |  |  |  |  |  |  |  |  |  | viability at 5 µM (MCF7 [19]): 43.1%; viability at 5 µM (MDA-MB-231 [20]): 22.9%
